Measurements from patent publication US6693216B2, “Calcium double salts” (Nutrinova Nutrition Specialties & Food Ingredients GmbH, priority 2000, dated 2004).
Like-named read-outs stand apart in the source and are kept apart here.

Key:
Lactic acid bacteria = details: Part II, 1 g/l in apple juice pH 4.5, 25° C.
Molds I = details: Part II, 1 g/l in apple juice pH 4.5, 25° C.
Gram-negative bacteria = details: Part II; for Number of surviving microorganisms per g of contaminated sample, Gram-negative bacteria: 1 g/l in apple juice pH 4.5, 25° C.
Thermophilic bacilli = details: Part II, 1 g/l in apple juice pH 4.5, 25° C.
Yeasts = details: Part II, 1 g/l in apple juice pH 4.5, 25° C.
[1] = sealed
Source text: Salts prepared as in example 1 were dried, stored under the specified conditions without the addition of other substances and checked at regular intervals visually for discoloration: […]

Clostridia = details: Part II, 1 g/l in apple juice pH 4.5, 25° C.
Bacilli = details: Part II, 1 g/l in apple juice pH 4.5, 25° C.
Molds II = details: Part II, 1 g/l in apple juice pH 4.5, 25° C.
Gram-positive bacteria = details: Part II, 1 g/l in apple juice pH 4.5, 25° C.
Acetic acid bacteria = details: Part II, 1 g/l in apple juice pH 4.5, 25° C.
[2] = 1 day after inoculation (2.7 × 10^4)
[3] = 3 days after inoculation (2.7 × 10^4)
[4] = 7 days after inoculation (2.7 × 10^4)
[5] = 14 days after inoculation (2.7 × 10^4)

SMILES: C/C=C/C=C/C(=O)[O-].CC(=O)[O-].[Ca+2] [calcium acetate sorbate]
- Number of surviving microorganisms per g of contaminated sample, Lactic acid bacteria (Lactic acid bacteria; [2]): 5.5 × 10^3 CFU/g
- Number of surviving microorganisms per g of contaminated sample, Lactic acid bacteria (Lactic acid bacteria; [3]): <100 CFU/g
- Number of surviving microorganisms per g of contaminated sample, Lactic acid bacteria (Lactic acid bacteria; [4]): <10 CFU/g
- Number of surviving microorganisms per g of contaminated sample, Lactic acid bacteria (Lactic acid bacteria; [5]): <10 CFU/g
- Number of surviving microorganisms per g of contaminated sample, Molds I (Molds I; 1 day after inoculation (2.2 × 10^4)): 3.7 × 10^3 CFU/g
- Number of surviving microorganisms per g of contaminated sample, Molds I (Molds I; 3 days after inoculation (2.2 × 10^4)): 5.0 × 10^2 CFU/g
- Number of surviving microorganisms per g of contaminated sample, Molds I (Molds I; 7 days after inoculation (2.2 × 10^4)): 1.0 × 10^2 CFU/g
- Number of surviving microorganisms per g of contaminated sample, Molds I (Molds I; 14 days after inoculation (2.2 × 10^4)): <100 CFU/g
- Growth of Gram-negative bacteria (Gram-negative bacteria; 1 g/l in apple juice pH 4.5): substantially inhibited
- Number of surviving microorganisms per g of contaminated sample, Gram-negative bacteria (Gram-negative bacteria; [2]): 9.0 × 10^3 CFU/g
- Number of surviving microorganisms per g of contaminated sample, Gram-negative bacteria (Gram-negative bacteria; [3]): 3.2 × 10^3 CFU/g
- Number of surviving microorganisms per g of contaminated sample, Gram-negative bacteria (Gram-negative bacteria; [4]): 1.5 × 10^3 CFU/g
- Number of surviving microorganisms per g of contaminated sample, Gram-negative bacteria (Gram-negative bacteria; [5]): 4.2 × 10^4 CFU/g
- Number of surviving microorganisms per g of contaminated sample, Thermophilic bacilli (Thermophilic bacilli; 1 day after inoculation (1.3 × 10^4)): 2.3 × 10^3 CFU/g
- Number of surviving microorganisms per g of contaminated sample, Thermophilic bacilli (Thermophilic bacilli; 3 days after inoculation (1.3 × 10^4)): 1.1 × 10^3 CFU/g
- Number of surviving microorganisms per g of contaminated sample, Thermophilic bacilli (Thermophilic bacilli; 7 days after inoculation (1.3 × 10^4)): 1.0 × 10^2 CFU/g
- Number of surviving microorganisms per g of contaminated sample, Thermophilic bacilli (Thermophilic bacilli; 14 days after inoculation (1.3 × 10^4)): <10 CFU/g
- Number of surviving microorganisms per g of contaminated sample, Yeasts (Yeasts; 1 day after inoculation (2.6 × 10^4)): 1.3 × 10^4 CFU/g
- Number of surviving microorganisms per g of contaminated sample, Yeasts (Yeasts; 3 days after inoculation (2.6 × 10^4)): 3.4 × 10^3 CFU/g
- Number of surviving microorganisms per g of contaminated sample, Yeasts (Yeasts; 7 days after inoculation (2.6 × 10^4)): <100 CFU/g
- Number of surviving microorganisms per g of contaminated sample, Yeasts (Yeasts; 14 days after inoculation (2.6 × 10^4)): <10 CFU/g
- Time after yellow-brown discoloration of a 1% strength aqueous solution ([1]; dark at 7° C.): >12 months />12 months
- Time after yellow-brown discoloration of the powder ([1]; dark at 7° C.): 12 months />12 months
- Time after yellow-brown discoloration of a 1% strength aqueous solution ([1]; dark at 25° C.): >12 months />12 months
- Time after yellow-brown discoloration of the powder ([1]; dark at 25° C.): 12 months />12 months
- Time after yellow-brown discoloration of a 1% strength aqueous solution ([1]; under sunlight at 7° C.): 12 months />12 months
- Time after yellow-brown discoloration of the powder ([1]; under sunlight at 7° C.): 12 months />12 months
- Time after yellow-brown discoloration of a 1% strength aqueous solution ([1]; under sunlight at 25° C.): 12 months />12 months
- Time after yellow-brown discoloration of the powder ([1]; under sunlight at 25° C.): 12 months />12 months
- Number of surviving microorganisms per g of contaminated sample, Clostridia (Clostridia; 1 day after inoculation (2.9 × 10^4)): 7.0 × 10^2 CFU/g
- Number of surviving microorganisms per g of contaminated sample, Clostridia (Clostridia; 3 days after inoculation (2.9 × 10^4)): <100 CFU/g
- Number of surviving microorganisms per g of contaminated sample, Clostridia (Clostridia; 7 days after inoculation (2.9 × 10^4)): <10 CFU/g
- Number of surviving microorganisms per g of contaminated sample, Clostridia (Clostridia; 14 days after inoculation (2.9 × 10^4)): <10 CFU/g
- Number of surviving microorganisms per g of contaminated sample, Bacilli (Bacilli; 1 day after inoculation (3.3 × 10^4)): 2.5 × 10^3 CFU/g
- Number of surviving microorganisms per g of contaminated sample, Bacilli (Bacilli; 3 days after inoculation (3.3 × 10^4)): 1.7 × 10^3 CFU/g
- Number of surviving microorganisms per g of contaminated sample, Bacilli (Bacilli; 7 days after inoculation (3.3 × 10^4)): 1.7 × 10^3 CFU/g
- Number of surviving microorganisms per g of contaminated sample, Bacilli (Bacilli; 14 days after inoculation (3.3 × 10^4)): 1.4 × 10^3 CFU/g
- Number of surviving microorganisms per g of contaminated sample, Molds II (Molds II; 1 day after inoculation (2.5 × 10^4)): 4.4 × 10^3 CFU/g
- Number of surviving microorganisms per g of contaminated sample, Molds II (Molds II; 3 days after inoculation (2.5 × 10^4)): <100 CFU/g
- Number of surviving microorganisms per g of contaminated sample, Molds II (Molds II; 7 days after inoculation (2.5 × 10^4)): <10 CFU/g
- Number of surviving microorganisms per g of contaminated sample, Molds II (Molds II; 14 days after inoculation (2.5 × 10^4)): <10 CFU/g
- Number of surviving microorganisms per g of contaminated sample, Gram-positive bacteria (Gram-positive bacteria; 1 day after inoculation (2.1 × 10^4)): 2.5 × 10^4 CFU/g
- Number of surviving microorganisms per g of contaminated sample, Gram-positive bacteria (Gram-positive bacteria; 3 days after inoculation (2.1 × 10^4)): 6.2 × 10^3 CFU/g
- Number of surviving microorganisms per g of contaminated sample, Gram-positive bacteria (Gram-positive bacteria; 7 days after inoculation (2.1 × 10^4)): 2.7 × 10^3 CFU/g
- Number of surviving microorganisms per g of contaminated sample, Gram-positive bacteria (Gram-positive bacteria; 14 days after inoculation (2.1 × 10^4)): <10 CFU/g
- Preservative action against the microorganisms used (all microorganisms used; 1 g/l in apple juice pH 4.5, up to 14 days): acts well and persistently against all microorganisms used except for acetic acid bacteria and bacilli
- Preservative action compared with the single salts (all microorganisms used; same concentration, 1 g/l in apple juice pH 4.5): acts surprisingly better than calcium acetate (in particular against lactic acid bacteria, yeasts, molds and Gram-positive bacteria) or calcium sorbate (in particular against lactic acid bacteria) used alone
- Number of surviving microorganisms per g of contaminated sample, Acetic acid bacteria (Acetic acid bacteria; 1 day after inoculation (2.8 × 10^4)): 2.5 × 10^4 CFU/g
- Number of surviving microorganisms per g of contaminated sample, Acetic acid bacteria (Acetic acid bacteria; 3 days after inoculation (2.8 × 10^4)): 6.5 × 10^3 CFU/g
- Number of surviving microorganisms per g of contaminated sample, Acetic acid bacteria (Acetic acid bacteria; 7 days after inoculation (2.8 × 10^4)): 1.7 × 10^5 CFU/g
- Number of surviving microorganisms per g of contaminated sample, Acetic acid bacteria (Acetic acid bacteria; 14 days after inoculation (2.8 × 10^4)): 1.6 × 10^5 CFU/g
